# Experimental data taken from patent US12492181B2, “Gem-disubstituted piperidine melanocortin subtype-2 receptor (MC2R) antagonists and uses thereof” (Crinetics Pharmaceuticals, Inc., priority 2019, dated 2025).
# Target: T1, hMC2 receptor (crude hMC2R membranes from CRE-bla-CHO-K1 cells stably expressing hMC2 receptor and hMRAP accessory protein) (Homo sapiens, UniProt Q01718)
# T1 construct: crude membrane fractions
# Experiment: hMC2 membrane binding assay ([125I]ACTH (1-39) Tyr23, SPA)
# Conditions: displacement of 0.2 nM [125I]ACTH (1-39) Tyr23 from hMC2R membranes, 1.5 hours at room temperature; read-out: MC2R binding potency
# How it was run: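 Ki values come from non-linear regression of SPA scintillation counts, with compounds displacing [125I]ACTH(1-39) Tyr23. Membranes come from CRE-bla-CHO-K1 cells stably expressing hMC2 receptor together with hMRAP. They are preincubated with WGA-coated PVT SPA beads in 50 mM HEPES pH 7.4 with 0.20% BSA, Mg2+, Ca2+ and protease inhibitors.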
# T1 sequence (Q01718 whole entry): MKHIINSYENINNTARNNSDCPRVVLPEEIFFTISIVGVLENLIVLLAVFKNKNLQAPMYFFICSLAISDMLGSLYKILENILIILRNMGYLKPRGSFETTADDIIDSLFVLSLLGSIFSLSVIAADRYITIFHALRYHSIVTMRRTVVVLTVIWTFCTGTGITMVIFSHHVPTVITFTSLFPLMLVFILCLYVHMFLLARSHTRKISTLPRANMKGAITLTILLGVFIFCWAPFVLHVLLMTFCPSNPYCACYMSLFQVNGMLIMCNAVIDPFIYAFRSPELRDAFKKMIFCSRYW
# T1 sequence (Q8TCY5 whole entry partner): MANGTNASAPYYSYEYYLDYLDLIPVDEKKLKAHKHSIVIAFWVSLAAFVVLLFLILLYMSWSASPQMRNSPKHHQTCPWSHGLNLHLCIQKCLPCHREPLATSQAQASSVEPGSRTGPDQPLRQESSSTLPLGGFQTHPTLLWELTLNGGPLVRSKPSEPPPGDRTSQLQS
row,Ki,Structure (SMILES)
1,10 to 100 nM,"CCOc1ncccc1-c1ccc(C2(C(=O)N[C@@H]3CCN(C)C3)CCN(c3ccc(C(F)(F)F)c(Cl)c3)CC2)cc1 [Compound 1-165, 1-[3-chloro-4-(trifluoromethyl)phenyl]-4-[4-(2-ethoxypyridin-3-yl)phenyl]-N-[(3R)-1-methylpyrrolidin-3-yl]piperidine-4-carboxamide]"
2,100 to 1000 nM,"Cc1cccnc1-c1ccc(C2(C(=O)N[C@@H]3CCN(C)C3)CCN(c3ccc(C(F)(F)F)cc3C#N)CC2)cn1 [Compound 1-177, 1-[2-cyano-4-(trifluoromethyl)phenyl]-4-{3′-methyl-[2,2′-bipyridin]-5-yl}-N-[(3R)-1-methylpyrrolidin-3-yl]piperidine-4-carboxamide]"
3,< 10 nM,"CNCCNC(=O)C1(c2ccc(-c3cccn3C)nc2)CCN(c2ccc(C(F)(F)F)cc2Cl)CC1 [Compound 1-283, 1-[2-chloro-4-(trifluoromethyl)phenyl]-4-[6-(1-methyl-1H-pyrrol-2-yl)pyridin-3-yl]-N-[2-(methylamino)ethyl]piperidine-4-carboxamide]"
4,< 10 nM,"CN1CC[C@H](NC(=O)C2(c3cnc(-c4cccn4C)c(F)c3)CCN(c3ccc(C(F)(F)F)cc3C#N)CC2)C1 [Compound 1-161, 1-[2-cyano-4-(trifluoromethyl)phenyl]-4-[5-fluoro-6-(1-methyl-1H-pyrrol-2-yl)pyridin-3-yl]-N-[(3S)-1-methylpyrrolidin-3-yl]piperidine-4-carboxamide]"
5,< 10 nM,"COc1ccccc1-c1ncc(C2(NC(=O)CCN(C)C)CCN(c3ccc(C(F)(F)F)cc3C#N)CC2)cc1F [Compound 2-62, N-{1-[2-cyano-4-(trifluoromethyl)phenyl]-4-[5-fluoro-6-(2-methoxyphenyl)pyridin-3-yl]piperidin-4-yl}-3-(dimethylamino)propanamide]"
6,< 10 nM,"CCOc1ncccc1-c1ncc(C2(C(=O)NCCNC)CCN(c3ccc(C(F)(F)F)cc3C#N)CC2)cc1F [Compound 1-311, 1-[2-cyano-4-(trifluoromethyl)phenyl]-4-{2′-ethoxy-3-fluoro-[2,3′-bipyridin]-5-yl}-N-[2-(methylamino)ethyl]piperidine-4-carboxamide]"
7,< 10 nM,"CCOc1ccccc1-c1ccc(C2(C(=O)N[C@H]3CCN(C)C3)CCN(c3ccc(Cl)cc3C#N)CC2)nn1 [Compound 1-134, 1-(4-chloro-2-cyanophenyl)-4-[6-(2-ethoxyphenyl)pyridazin-3-yl]-N-[(3S)-1-methylpyrrolidin-3-yl]piperidine-4-carboxamide]"
8,< 10 nM,"CNCCNC(=O)C1(c2ccc(-c3ccccc3OC)nc2)CCN(c2ccc(C(F)(F)F)cc2C#N)CC1 [Compound 1-214, 1-[2-cyano-4-(trifluoromethyl)phenyl]-4-[6-(2-methoxyphenyl)pyridin-3-yl]-N-[2-(methylamino)ethyl]piperidine-4-carboxamide]"
9,< 10 nM,"CN1CC[C@H](NC(=O)C2(c3ccc(-c4cccnc4C4CC4)nc3)CCN(c3ccc(C(F)(F)F)cc3C#N)CC2)C1 [Compound 1-180, 1-[2-cyano-4-(trifluoromethyl)phenyl]-4-{2′-cyclopropyl-[2,3′-bipyridin]-5-yl}-N-[(3S)-1-methylpyrrolidin-3-yl]piperidine-4-carboxamide]"
10,< 10 nM,"COc1ncc(F)cc1-c1ccc(C2(C(=O)N[C@@H]3CCN(C)C3)CCN(c3ccc(C(F)(F)F)cc3C#N)CC2)cn1 [Compound 1-86, 1-[2-cyano-4-(trifluoromethyl)phenyl]-4-{5′-fluoro-2′-methoxy-[2,3′-bipyridin]-5-yl}-N-[(3R)-1-methylpyrrolidin-3-yl]piperidine-4-carboxamide]"
11,< 10 nM,"COc1ccccc1-c1ncc(C2(NC(=O)N[C@@H]3CCN(C)C3)CCN(c3ccc(C(F)(F)F)cc3C#N)CC2)cc1F [Compound 2-52, 1-{1-[2-cyano-4-(trifluoromethyl)phenyl]-4-[5-fluoro-6-(2-methoxyphenyl)pyridin-3-yl]piperidin-4-yl}-3-[(3R)-1-methylpyrrolidin-3-yl]urea]"
12,< 10 nM,"CCOc1ccccc1-c1ccc(C2(NC(=O)CN(C)C)CCN(c3ccc(Cl)cc3C#N)CC2)cn1 [Compound 2-31, N-[1-(4-chloro-2-cyanophenyl)-4-[6-(2-ethoxyphenyl)pyridin-3-yl]piperidin-4-yl]-2-(dimethylamino)acetamide]"
13,< 10 nM,"COc1ncccc1-c1ccc(C2(C(=O)N[C@H]3CCN(C)C3)CCN(c3ccc(C(F)(F)F)cc3Cl)CC2)cn1 [Compound 1-142, 1-[2-chloro-4-(trifluoromethyl)phenyl]-4-{2′-methoxy-[2,3′-bipyridin]-5-yl}-N-[(3S)-1-methylpyrrolidin-3-yl]piperidine-4-carboxamide]"
14,< 10 nM,"CCOc1ncccc1-c1ccc(C2(C(=O)NC[C@H](CO)NC)CCN(c3ccc(C(F)(F)F)cc3C#N)CC2)cn1 [Compound 1-44, 1-[2-cyano-4-(trifluoromethyl)phenyl]-4-{2′-ethoxy-[2,3′-bipyridin]-5-yl}-N-[(2R)-3-hydroxy-2-(methylamino)propyl]piperidine-4-carboxamide]"
15,< 10 nM,"CCOc1ncccc1-c1ccc(C2(C(=O)NCCN(C)C)CCN(c3ccc(C(F)(F)F)cc3C#N)CC2)nn1 [Compound 1-331, 1-[2-cyano-4-(trifluoromethyl)phenyl]-N-[2-(dimethylamino)ethyl]-4-[6-(2-ethoxypyridin-3-yl)pyridazin-3-yl]piperidine-4-carboxamide]"
16,< 10 nM,"CNC[C@H](C)NC(=O)C1(c2ccc(-c3cccn3C)nc2)CCN(c2ccc(C(F)(F)F)cc2F)CC1 [Compound 1-298, 1-[2-fluoro-4-(trifluoromethyl)phenyl]-4-[6-(1-methyl-1H-pyrrol-2-yl)pyridin-3-yl]-N-[(2S)-1-(methylamino)propan-2-yl]piperidine-4-carboxamide]"
17,< 10 nM,"COc1ccccc1-c1ncc(C2(C(=O)NCCN(C)C)CCN(c3ccc(C(F)(F)F)cc3Cl)CC2)cc1F [Compound 1-286, 1-[2-chloro-4-(trifluoromethyl)phenyl]-N-[2-(dimethylamino)ethyl]-4-[5-fluoro-6-(2-methoxyphenyl)pyridin-3-yl]piperidine-4-carboxamide]"
18,< 10 nM,"CCOc1ccccc1-c1ccc(C2(C(=O)N[C@H]3CCN(C)C3)CCN(c3ccc(C(F)(F)F)cc3F)CC2)cn1 [Compound 1-145, 4-[6-(2-ethoxyphenyl)pyridin-3-yl]-1-[2-fluoro-4-(trifluoromethyl)phenyl]-N-[(3S)-1-methylpyrrolidin-3-yl]piperidine-4-carboxamide]"
19,< 10 nM,"CNCCNC(=O)C1(c2cnc(-c3cccn3C)c(F)c2)CCN(c2ccc(C(F)(F)F)cc2F)CC1 [Compound 1-305, 1-[2-fluoro-4-(trifluoromethyl)phenyl]-4-[5-fluoro-6-(1-methyl-1H-pyrrol-2-yl)pyridin-3-yl]-N-[2-(methylamino)ethyl]piperidine-4-carboxamide]"
20,100 to 1000 nM,"CN1CC(F)(F)C[C@@H]1CNC(=O)C1(c2ccc(-c3cccn3C)nc2)CCN(c2ccc(C(F)(F)F)cc2C#N)CC1 [Compound 1-280, 1-[2-cyano-4-(trifluoromethyl)phenyl]-N-{[(2R)-4,4-difluoro-1-methylpyrrolidin-2-yl]methyl}-4-[6-(1-methyl-1H-pyrrol-2-yl)pyridin-3-yl]piperidine-4-carboxamide]"
